From patent US8137718B2, “Probiotic infant products” (Mead Johnson Nutrition Company, priority 2008, dated 2012)

Tested on: B. longum AH1205
Experiment: Minimum inhibitory concentration (MIC) of antibiotics for the B. longum strain
Type: cell-based, Bifidobacterium longum
Settings: against the B. longum strain AH1205
Experimental: Antibiotic sensitivity profiles of the B. longum strain were determined using the “disc susceptibility” assay. Cultures were grown in the appropriate broth medium for 24-48 hours, spread-plated (100 μl) onto agar media, and discs containing known concentrations of the antibiotics were placed onto the agar. Strains were examined for antibiotic sensitivity after 1-2 days incubation at 37° C. under anaerobic conditions. Strains were considered sensitive if zones of inhibition of 1 mm or greater were seen. The minimum inhibitory concentration (MIC) for each antibiotic was independently assessed.

| minimum inhibitory concentration (MIC) | Compound |
| --- | --- |
| > 256 | Cc1ncc([N+](=O)[O-])n1CCO [metronidazole] |
| 0.032 | CCC[C@@H]1C[C@@H](C(=O)N[C@@H]([C@H]2O[C@H](SC)[C@H](O)[C@@H](O)[C@H]2O)[C@H](C)Cl)N(C)C1 [clindamycin] |

| Compound | minimum inhibitory concentration (MIC) |
| --- | --- |
| CN[C@H](CC(C)C)C(=O)N[C@H]1C(=O)N[C@@H](CC(N)=O)C(=O)N[C@H]2C(=O)N[C@H]3C(=O)N[C@H](C(=O)N[C@H](C(=O)O)c4cc(O)cc(O)c4-c4cc3ccc4O)[C@H](O)c3ccc(c(Cl)c3)Oc3cc2cc(c3O[C@@H]2O[C@H](CO)[C@@H](O)[C@H](O)[C@H]2O[C@H]2C[C@](C)(N)[C@H](O)[C@H](C)O2)Oc2ccc(cc2Cl)[C@H]1O [vancomycin] | 0.75 |
